Where two headings read alike, the source gives them in different places.
Key:
[1] = biological target: Recombinant human soluble BACE-1 catalytic domain (Homo sapiens (Human), UniProt P56817); assay: BACE-1 Ki Assay (BACE-1 HTRF FRET Assay); format: biochemical
Description: Assay 1: BACE-1 Ki Assay (BACE-1 HTRF FRET Assay)
The compounds of the invention were assessed for their ability to inhibit BACE-1 using the following assay.
The following reagents were used in this assay. Na^+-Acetate pH 5.0; 1% Brij-35; Glycerol; Dimethyl Sulfoxide (DMSO); Recombinant human soluble BACE-1 catalytic domain (>95% pure); APP Swedish mutant peptide substrate (QSY7-APP^swe-Eu): QSY7-EISEVNLDAEFC-Europium-amide.
A homogeneous time-resolved FRET assay can be used to determine IC50 values for inhibitors of the soluble human BACE-1 catalytic domain. This assay monitors the increase of 620 nm fluorescence that resulted from BACE-1 cleavage of an APPswedish APP^swe mutant peptide FRET substrate (QSY7-EISEVNLDAEFC-Europium-amide). This substrate contains an N-terminal QSY7 moiety that serves as a quencher of the C-terminal Europium fluorophore (620 nm Em). In the absence of enzyme activity, 620 nm fluorescence is low in the assay and increased linearly over 3 hours in the presence of uninhibited BACE-1 enzyme. Inhibition of BACE-1 cleavage of the QSY7-APP^swe-Eu substrate by inhibitors is manifested as a suppression of 620 nm fluorescence.
Varying concentrations of inhibitors at 3× the final desired concentration in a volume of 10 ul are preincubated with purified human BACE-1 catalytic domain (3 nM in 10 μl) for 30 minutes at 30° C. in reaction buffer containing 20 mM Na-Acetate pH 5.0, 10% glycerol, 0.1% Brij-35 and 7.5% DSMO. Reactions are initiated by addition of 10 μl of 600 nM QSY7-APP^swe-Eu substrate (200 nM final) to give a final reaction volume of 30 μl in a 384 well Nunc HTRF plate. The reactions are incubated at 30° C. for 1.5 hours. The 620 nm fluorescence is then read on a Rubystar HTRF plate reader (BMG Labtechnologies) using a […] delay followed by a 400 millisecond acquisition time window. Inhibitor IC50 values are derived from non-linear regression analysis of concentration response curves. Ki values are then calculated from IC50 values using the Cheng-Prusoff equation using a previously determined […] of 8 μM for the QSY7-APP^swe-Eu substrate at BACE-1. The example compounds of the invention were measured in this assay.

[2] = biological target: purified human autoBACE-2 (Homo sapiens (Human), UniProt Q9Y5Z0); assay: BACE-2 Assay (BACE-HTRF assay); format: biochemical; conditions: Table 1; Ki calculated from IC50 with Cheng-Prusoff equation; read-out: BACE2 Ki
purified human autoBACE-2, sequence (Q9Y5Z0 63-473): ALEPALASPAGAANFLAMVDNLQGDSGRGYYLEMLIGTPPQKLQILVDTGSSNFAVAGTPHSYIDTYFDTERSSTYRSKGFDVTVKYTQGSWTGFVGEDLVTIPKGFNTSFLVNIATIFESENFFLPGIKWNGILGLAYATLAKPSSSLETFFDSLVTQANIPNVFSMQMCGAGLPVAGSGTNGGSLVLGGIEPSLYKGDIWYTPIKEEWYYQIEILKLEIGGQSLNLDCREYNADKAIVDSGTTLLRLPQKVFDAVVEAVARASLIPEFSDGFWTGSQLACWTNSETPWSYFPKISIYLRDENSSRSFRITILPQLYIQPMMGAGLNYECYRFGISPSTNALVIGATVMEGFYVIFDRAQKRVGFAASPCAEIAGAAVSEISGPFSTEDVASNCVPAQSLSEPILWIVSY
Description: Inhibitor IC50s, at purified human autoBACE-2 are determined in a time-resolved endpoint proteolysis assay that measures hydrolysis of the QSY7-EISEVNLDAEFC-Eu-amide FRET peptide substrate (BACE-HTRF assay). BACE-mediated hydrolysis of this peptide results in an increase in relative fluorescence (RFU) at 620 nm after excitation with 320 nm light. Inhibitor compounds, prepared at 3× the desired final concentration in 1× BACE assay buffer (20 mM sodium acetate pH 5.0, 10% glycerol, 0.1% Brij-35) supplemented with 7.5% DMSO are pre-incubated with an equal volume of autoBACE-2 enzyme diluted in 1×BACE assay buffer (final enzyme concentration 1 nM) in black 384-well NUNC plates for 30 minutes at 30° C. The assay is initiated by addition of an equal volume of the QSY7-EISEVNLDAEFC-Eu-amide substrate (200 nM final concentration, Km=8 μM […] for autoBACE-2) prepared in 1×BACE assay buffer supplemented with 7.5% DMSO and incubated for 90 minutes at 30° C. DMSO is present at 5% final concentration in the assay. Following laser excitation of sample wells at 320 nm, the fluorescence signal at 620 nm is collected for 400 ms following a 50 μs delay on a RUBYstar HTRF plate reader (BMG Labtechnologies). Raw RFU data is normalized to maximum (1.0 nM BACE/DMSO) and minimum (no enzyme/DMSO) RFU values. IC50 values are determined by nonlinear regression analysis (sigmoidal dose response, variable slope) of percent inhibition data with minimum and maximum values set to 0 and 100 percent respectively. Similar IC50s are obtained when using raw RFU data. The Ki values are calculated from the IC50 using the Cheng-Prusoff equation.

[3] = Table 3, comparator compounds of WO2011044181, read-out: BACE-1 Ki Nm
[4] = Table 1, Ki calculated from IC50 with Cheng-Prusoff equation, read-out: BACE1 Ki

Recombinant human soluble BACE-1 catalytic domain, sequence (P56817 75-416): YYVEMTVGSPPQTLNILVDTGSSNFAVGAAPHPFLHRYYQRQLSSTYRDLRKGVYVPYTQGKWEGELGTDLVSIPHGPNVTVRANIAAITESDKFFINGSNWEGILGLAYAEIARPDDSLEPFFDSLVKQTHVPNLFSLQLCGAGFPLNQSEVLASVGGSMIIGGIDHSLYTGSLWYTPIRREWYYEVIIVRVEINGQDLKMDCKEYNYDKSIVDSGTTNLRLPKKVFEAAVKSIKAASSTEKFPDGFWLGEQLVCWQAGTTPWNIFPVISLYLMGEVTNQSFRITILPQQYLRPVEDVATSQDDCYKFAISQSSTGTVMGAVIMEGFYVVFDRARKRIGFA

Ki [1, 3] | Ki [1, 4] | Ki [2] | SMILES
 | 1.2 nM | 0.22 nM | CN1C(=N)N[C@](C)(c2cc(Nc3nccc4cc(Cl)cnc34)ccc2F)CS1(=O)=O [Example 1, 3-chloro-N-{4-fluoro-3-[(5R)-3-imino-2,5-dimethyl-1,1-dioxido-1,2,4-thiadiazinan-5-yl]phenyl}-1,7-naphthyridin-8-amine]
 | 1.5 nM | 0.38 nM | CN1C(=N)N[C@](C)(c2cc(Nc3nccc4cc(Br)cnc34)ccc2F)CS1(=O)=O [Example 2, 3-bromo-N-{4-fluoro-3-[(5R)-3-imino-2,5-dimethyl-1,1-dioxido-1,2,4-thiadiazinan-5-yl]phenyl}-1,7-naphthyridin-8-amine]
 | 2.8 nM | 0.81 nM | CN1C(=N)N[C@](C)(c2cc(Nc3ncnc4cc(Br)cnc34)ccc2F)CS1(=O)=O [Example 3, 7-bromo-N-{4-fluoro-3-[(5R)-3-imino-2,5-dimethyl-1,1-dioxido-1,2,4-thiadiazinan-5-yl]phenyl}pyrido[3,2-d]pyrimidin-4-amine]
 | 16.2 nM | 4.5 nM | COc1cnc2c(Nc3cc([C@]4(C)CS(=O)(=O)N(C)C(=N)N4)c(F)cn3)nccc2c1 [Example 5, N-{5-fluoro-4-[(5R)-3-imino-2,5-dimethyl-1,1-dioxido-1,2,4-thiadiazinan-5-yl]pyridin-2-yl}-3-methoxy-1,7-naphthyridin-8-amine]
 | 10.6 nM | 15.4 nM | COc1cnc2c(Nc3ccc(F)c([C@]4(C)CS(=O)(=O)N(C)C(=N)N4)c3)ncnc2n1 [Example 13, N-{4-fluoro-3-[(5R)-3-imino-2,5-dimethyl-1,1-dioxido-1,2,4-thiadiazinan-5-yl]phenyl}-7-methoxypteridin-4-amine]
 | 128 nM | 43.1 nM | CN1C(=N)N[C@](C)(c2cc(N[C@H]3CCCc4cc(Br)cnc43)ccc2F)CS1(=O)=O [Example 20, (R)-5-(5-(((S)-3-bromo-5,6,7,8-tetrahydroquinolin-8-yl)amino)-2-fluorophenyl)-3-imino-2,5-dimethyl-1,2,4-thiadiazinane 1,1-dioxide]

More lines, now with the values behind:

SMILES | Ki [1, 3] | Ki [1, 4] | Ki [2]
CN1C(=N)N[C@](C)(c2cc(Nc3cccc4c3OC(F)(F)O4)ccc2F)CS1(=O)=O [103 (Scheme 18), reference compound] | 42 nM |  | 
COc1ccccc1Nc1cccc([C@]2(C)CS(=O)(=O)N(C)C(=N)N2)c1 [103a (Table IXa), reference compound] | 69 nM |  | 
CN1C(=N)N[C@](C)(c2cccc(Nc3ccccc3C#N)n2)CS1(=O)=O [103b (Table IXa), reference compound] | 514 nM |  | 
COc1ccccc1Nc1cccc([C@]2(C)CS(=O)(=O)N(C)C(=N)N2)n1 [162 (Scheme 40), reference compound] | 3760 nM |  | 
CN1C(=N)N[C@](C)(c2cccc(Nc3cccc4c3OC(F)(F)O4)n2)CS1(=O)=O [163 (Table XXI), reference compound] | 4700 nM |  | 
CN1C(=N)N[C@](C)(c2cccc(Nc3ncccc3C#N)n2)CS1(=O)=O [164 (Table XXI), reference compound] | 508 nM |  | 
COc1cccnc1Nc1cccc([C@]2(C)CS(=O)(=O)N(C)C(=N)N2)n1 [165 (as listed on page 224), reference compound] | 2590 nM |  | 
COc1cccnc1Nc1cc([C@]2(C)CS(=O)(=O)N(C)C(=N)N2)ccn1 [166 (Table XXI), reference compound] | 41 nM |  | 
COc1ccccc1Nc1cc([C@]2(C)CS(=O)(=O)N(C)C(=N)N2)ccn1 [167 (Table XXI), reference compound] | 344 nM |  | 
CN1C(=N)N[C@](C)(c2cc(N[C@@H]3CCc4ncc(Cl)cc43)ccc2F)CS1(=O)=O [Example 15, (R)-5-(5-(((R)-3-chloro-6,7-dihydro-5H-cyc1openta[b]pyridin-5-yl)amino)-2-fluorophenyl)-3-imino-2,5-dimethyl-1,2,4-thiadiazinane 1,1-dioxide] |  | 41.2 nM | 124 nM
CN1C(=N)N[C@](C)(c2cc(N[C@@H]3CCc4ncc(C(F)(F)F)cc43)ccc2F)CS1(=O)=O [Example 16, (R)-5-(2-fluoro-5-(((R)-3-(trifluoromethyl)-6,7-dihydro-5H-cyclopenta[b]pyridin-5-yl)amino)phenyl)-3-imino-2,5-dimethyl-1,2,4-thiadiazinane 1,1-dioxide] |  | 57.3 nM | 242 nM
CN1C(=N)N[C@](C)(c2cc(N[C@H]3CCc4cc(Cl)ccc43)ccc2F)CS1(=O)=O [Example 17, (R)-5-(5-(((S)-5-chloro-2,3-dihydro-1H-inden-1-yl)amino)-2-fluorophenyl)-3-imino-2,5-dimethyl-1,2,4-thiadiazinane 1,1-dioxide] |  | 10.2 nM | 16.6 nM
CN1C(=N)N[C@](C)(c2cc(N[C@H]3CCc4cc(C#N)cnc43)ccc2F)CS1(=O)=O [Example 18, (S)-7-((4-fluoro-3-((R)-3-imino-2,5-dimethyl-1,1-dioxido-1,2,4-thiadiazinan-5-yl)phenyl)amino)-6,7-dihydro-5H-cyclopenta[b]pyridine-3-carbonitrile] |  | 3.1 nM | 22.3 nM
CN1C(=N)N[C@](C)(c2cc(N[C@@H]3CCc4cc(C#N)cnc43)ccc2F)CS1(=O)=O [Example 19, (R)-7-((4-fluoro-3-((R)-3-imino-2,5-dimethyl-1,1-dioxido-1,2,4-thiadiazinan-5-yl)phenyl)amino)-6,7-dihydro-5H-cyclopenta[b]pyridine-3-carbonitrile] |  | 81 nM | 42.6 nM

— patent US10071998B2, “Iminothiadiazine dioxides bearing an amine-linked substituent as BACE inhibitors, compositions, and their use” (Merck Sharp & Dohme Corp., priority 2015, dated 2018)
